Test results published in patent publication US20060120975A1, “Oral care composition comprising a phenolic compound and antioxidant vitamins and vitamin derivatives” (Colgate-Palmolive Company, priority 2004, published 2006).

System: IL-1β stimulated PGE2 production
Experiment: IL-1β stimulated PGE2 production cell culture assay, an inflammation model
Type: cell-based
Conditions: vitamin or vitamin derivative added to triclosan
From the text: The present invention is in part derived from a finding that, upon addition of an antioxidant vitamin or vitamin derivative to an antibacterial phenolic compound having anti-inflammatory activity, in particular a halogenated diphenylether compound having such activity, the anti-inflammatory activity can be enhanced.

Row | Compound | enhancing the anti-inflammatory activity of triclosan
1 | O=C1O[C@H]([C@@H](O)CO)C(O)=C1O [ascorbic acid] | especially effective
2 | vitamin E | less dramatic enhancement
3 | CC(=O)Oc1c(C)c(C)c2c(c1C)CCC(C)(CCC[C@H](C)CCC[C@H](C)CCCC(C)C)O2 (some centres unmarked) [vitamin E acetate] | especially effective
4 | CCCCCCCCCCCCCCCC(=O)OC[C@H](O)[C@H]1OC(=O)C(O)=C1O [Ascorbyl palmitate, ascorbyl palmitate] | less dramatic enhancement
5 | Cc1c(C)c2c(c(C)c1O)CCC(C)(C(=O)O)O2 (centres unmarked) [TROLOX®] | especially effective
